Data set [1] concerns iNOS. The data set can be described thus: Inhibition of LPS-induced iNOS induction in Raw264.7 cells (Griess reagent). As to conditions: Mus musculus, Raw264.7, LPS 100 ng/ml, 24 hours, read-out: Inhibition rate of iNOS induction (%). The data set is classed as cell-based. As to the method: To investigate whether or not the derivative of the present invention could inhibit iNOS inducement, Raw264.7 cells (mouse macrophages) were distributed in a 384-well plate at the density of 3×10^4 cells/well. The cells were treated with LPS at the concentration of 100 ng/ml, followed by culture at 37° C. for 24 hours. The concentration of […] increased in the medium was measured by using Griess reagent. The inhibition rate was calculated by mathematical formula based on the detected signals. The results are shown in Table 2. % inhibition=(mean value of sample−mean value of negative control)/(mean value of positive control −mean value of negative control)×100 [Mathematical Formula 1]

Data set [2] has as its system NFATc. Description: NFAT (NFATc) transcriptional activity, THP1-XBlue-MD2-CD14 cells, SEAP. The data set is classed as cell-based. The settings on record: LPS 1 μg/ml, 24 hours, FIG. 2B. As to the method: To evaluate the transcriptional activity of NFAT, THP1-XBlue-MD2-CD14 cells were cultured in 10% FBS-RPMI (supplemented with 200 μg/ml of Zeocin and 250 μg/ml of G418). First, the cells were distributed in a 96-well plate at the density of 2×10^4 cells/well, followed by culture. 1 μg/ml of LPS and the compound of the invention were added thereto, followed by culture for 24 hours. 20 μl of the supernatant was added with 180 μl of secreted embryonic alkaline phosphatase (SEAP) detection medium, followed by culture for 2 hours. Then, OD655 was measured.

Data set [3] deals with T1, COX1 (Ovis aries, UniProt P05979).
T1 construct: purchased Cayman Co. 760111
T1 sequence (P05979 25-600): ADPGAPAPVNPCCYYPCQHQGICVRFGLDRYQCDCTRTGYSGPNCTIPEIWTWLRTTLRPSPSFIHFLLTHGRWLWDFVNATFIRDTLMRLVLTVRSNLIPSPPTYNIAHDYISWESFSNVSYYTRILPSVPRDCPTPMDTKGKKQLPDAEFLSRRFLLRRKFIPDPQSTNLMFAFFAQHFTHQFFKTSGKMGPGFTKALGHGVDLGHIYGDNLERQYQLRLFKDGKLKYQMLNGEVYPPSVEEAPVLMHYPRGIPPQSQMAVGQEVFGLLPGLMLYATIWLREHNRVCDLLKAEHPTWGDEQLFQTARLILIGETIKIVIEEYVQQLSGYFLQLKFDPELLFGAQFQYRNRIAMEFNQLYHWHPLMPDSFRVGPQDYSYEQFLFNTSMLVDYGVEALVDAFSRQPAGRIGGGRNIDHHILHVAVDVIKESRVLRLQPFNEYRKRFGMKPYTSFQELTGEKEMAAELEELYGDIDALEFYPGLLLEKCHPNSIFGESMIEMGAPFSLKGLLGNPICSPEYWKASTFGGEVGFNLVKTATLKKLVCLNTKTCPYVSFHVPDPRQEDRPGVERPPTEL
The data set can be described thus: COX inhibition, COX assay kit (Table 4). The data set is classed as biochemical. As to the method:
10 μl of substrate and 10 μl of arachidonic acid were added thereto, followed by reaction for 10 minutes in the darkness. Then, OD590 was measured.

A short description of data set [4]: Cytotoxicity test (WST-8), VERO. The data set is classed as cell-based. The settings on record: African green monkey, VERO kidney cells. The protocol:
(§1) To investigate the cytotoxicity of the derivative of the present invention, 5 kinds of cell lines (VERO: African green monkey kidney cell line, HFL-1: human embryonic lung cell line, L929: NCTC clone 929, mouse fibroblast cell line, NIH 3T3: mouse embryonic fibroblast cell line, and CHO-K1: Chinese hamster ovary cell line) were distributed in a 96-well plate at the density of 1×10^4 cells/well, which were treated with the compound of the present invention for 24 hours. The water-soluble tetrazolium salt WST-8 was added thereto. The orange colored formazan dye degraded by dehydrogenase in the live cells was read, followed by nonlinear regression to determine 50% growth inhibition concentration.

Data set [5] can be described thus: Cytotoxicity test (WST-8), HFL-1. The data set is classed as cell-based. As to conditions: human, HFL-1 embryonic lung cells; HFL-1, 24 hours. As to the method:
as §1

Data set [6] in a line: Cytotoxicity test (WST-8), CHO-K1. The data set is classed as cell-based. The settings on record: Chinese hamster, CHO-K1 ovary cells; CHO-K1, 24 hours. As to the method: as §1
Data set [7] deals with inflammatory cytokines (TNF-α, IL-6). Description: Inflammatory cytokines in LPS-stimulated spleen cells of collagen-induced arthritis mice (ELISA). The data set is classed as in vivo. The settings on record: 15 and 60 mg/kg; arthritis mouse spleen cells, LPS 12 hours; FIG. 8. The protocol:
Particularly, the mice having arthritis induced by collagen in Example 10 were used herein. Cells were extracted from the mouse spleen, which were cultured in a 12-well plate and stabilized. Cells were stimulated with LPS for 12 hours and the expressions of inflammatory cytokines (TNF-α, IL-6) were measured by ELISA.

The nature of data set [8]: Metabolic stability in human liver microsomes. The data set is classed as in vitro ADME. As to conditions: human liver microsome fractions, 30 minutes. As to the method: Particularly, each compound was added to rat and human liver microsome fractions, followed by culture for 30 minutes. Each compound was administered via intravenous injection (iv) and oral-administration (po) to rat at the concentration of 5 mg/kg, followed by making pharmacokinetic profiles.

The subject of data set [9] is IL-6 and TNF-α. Description: Inflammatory cytokine expression in LPS-treated human mononuclear cells (PBMC), real-time PCR. The data set is classed as cell-based. As to conditions: LPS 1 μg/ml, compound 1 μg/ml, 6 hours, FIG. 11. As to the method:
Particularly, PBMC separated from healthy human blood was treated with LPS (1 μg/ml). The cells were treated with the compound of the present invention at the concentration of 1 μg/ml, followed by culture for 6 hours to investigate whether or not the induced inflammatory cytokine secretion was inhibited by the compound. RNA was separated from the cells, from which the transcription levels of IL-6 and TNF-α were quantified by real-time PCR. The results are shown in FIG. 11 (NC: negative control, PC: positive control).

The subject of data set [10] is Th17 cells. The data set can be described thus: Differentiation of mouse naïve T cells into Th17 cells. As to conditions: Rag2 KO/OVA-TCRtg naïve T cells, 3 days, secreted cytokine protein; compared with berberine; FIG. 12. The data set is classed as cell-based. As to the method: Particularly, the transgenic mouse (Rag2 KO/OVA-TCRtg) naïve T cells were cultured under the condition of Th17 cell differentiation (treated with IL-6, IL-1β, and TGF-β along with APC cells) for 3 days. Compared with berberine known as a Th17 differentiation inhibitor, the inhibitory effect of the NFAT5 inhibitor on the differentiation of Th17 was measured by quantifying the secreted cytokine protein. Cell survival rate under the same condition was also measured by CCK-8.

Turning to `COc1ccc2c(Cc3ccccc3F)c3n(c(=O)c2c1OC)CCc1cc2c(cc1-3)OCO2` [Example 1, 13-(2-fluorobenzyl)-9,10-dimethoxy-5H-[1,3]dioxolo[4,5-g]isoquinolino[3,2-a]isoquinoline-8(6H)-one], the inhibition at 1 µM in [1] (1 μM) stood at 91%. In [1] (10 μM), the inhibition at 10 µM is 134%. Further, the “inhibition of NFAT promoter / transcriptional activity (in words)” value in [2] is recorded as “slightly”. The “inhibitory effect on COX1 (in words)” value in data set [3] is on record as “weak inhibitory effect”. Moreover, the inhibition rate came out at 7.4 in data set [3] (Conc. 20 μM, two values per substance) and 23.4 in [3] (Conc. 100 μM, two values per substance). Further, in data set [3] (Conc. 20 μM, two values per substance, read-out: inhibition rate), the inhibition at 20 µM is 11.4%. Also, the inhibition at 100 µM in data set [3] (Conc. 100 μM, two values per substance, read-out: inhibition rate) turned out to be 28.4%. In addition, the concentration for half-maximal inhibition (IC50) in data set [3] (Table 4) was > 100 µM. Also, the results for the 50% growth inhibitory concentration (GI50) at 24 h in data set [4], in data set [5] and in data set [6] were 84.2 µM, 26.1 µM and 12.1 µM, respectively. Moreover, in data set [7], the “expression of IL-6” value is “reduced”. Besides, the “expression of TNF-α” value in [7] is given as “reduced”. The “remaining compound, Human (%)” value in [8] worked out at 68.2 ± 6.1%. The “expression of cytokines (IL-6, TNF-α transcription levels)” value in data set [9] is listed as “inhibit the expression of cytokines”. Further, in data set [10], the “inhibitory effect on the differentiation of Th17” value is listed as “inhibitory effect on the differentiation of Th17 as similar as berberine”.

Values taken from patent US9650389B2, “8-oxoprotoberberine derivative or pharmaceutically acceptable salt thereof, preparation method therefor and pharmaceutical composition for preventing or treating diseases associated with activity of NFAT5, containing same as active ingredient” (Korea Research Institute of Chemical Technology, priority 2013, dated 2017).
